Assay results published in the NIST ThermoML archive (doi:10.1021/je050092d).
± gives the expanded uncertainty stated by the source.

Assay: Molar enthalpy of transition or fusion
Conditions: Adiabatic calorimetry

SMILES: CCCCCCCCCCCCCCCCCC(=O)OCC(COC(=O)CCCCCCCCCCCCCCCCC)OC(=O)CCCCCCCCCCCCCCCCC [glycerol trioctadecanoate]
- Molar enthalpy of transition or fusion (Crystal): 197.6 ± 1.8 kJ/mol
- Molar enthalpy of transition or fusion (Metastable crystal): 129 ± 1.8 kJ/mol
